Source: patent publication US10011592B2, “Polycyclic inhibitor of anaplastic lymphoma kinase” (XUANZHU PHARMA CO., LTD., priority 2014, dated 2018)
Like-named read-outs stand apart in the source and are kept apart here.

Tests used:
NCI-H3122 = test: In vitro cell activity, NCI-H3122, MTS detection; type: cell-based; conditions: Homo sapiens, read-out: cell-inhibiting activity IC50, NCI-H3122
Protocol: (§1) Cells were digested with pancreatin. After centrifugation at 1000 rpm for 4 min, the supernatant was removed. […] The cell suspension (90 μL) was seeded to a 96-well plate to obtain a final cell density of 3000 cells/well; and then cultured in a 5% CO2, 37° C. incubator for 24 h.
(§2) Preparation of test compound solutions: a suitable amount of test compound (please see the following table for sample weight) was weighed, and diluted gradiently with DMSO to prepare a series of stock solutions of different concentrations (1000×test compound solution). Each of said stock solutions was further diluted by 100 folds with medium to obtain a 10×test compound solution.
(§3) Solvent control: 0.1% DMSO.
(§4) Cell control: cell seeding only, with no addition of compound.
(§5) Blank control: medium, for zero setting in an instrument.
(§6) (3.3) The 96-well plate was cultured in a 37° C., 5% CO2 incubator for 72h.
(§7) (1) The reagents in CellTiter 96®AQueous One Solution Cell Proliferation Assay (MTS) were placed at room temperature for 90 min.
(§8) (2) To each test well in the 96-well plate, 20 μL CellTiter 96® A Queous One Solution reagent was added.
(§9) (3) The 96-well plate was cultured in a 37° C., 5% CO2 incubator for 40 min.
(§10) (4) The results were read by Microplate Reader at 490 nm.
(§11) IC50 calculation: cell survival rate (%)=(ODsample value−ODblank value)/(ODmaximal value−ODblank value)×100, wherein Graph prisim software is used in curve fitting to get IC50 value.
(§12) ODmaximal value: cell control with the addition of solvent and no compound, ODblank value: blank control value.

NCI-H2228 = test: In vitro cell activity, NCI-H2228, CTG detection; type: cell-based; conditions: Homo sapiens, read-out: cell-inhibiting activity IC50, NCI-H2228
Protocol: Cells were digested with pancreatin. After centrifugation at 1000 rpm for 4 min, the supernatant was removed. […] The cell suspension (100 μL) was seeded to a 96-well plate to obtain a final cell density of 2000 cells/well.
(3.1) Preparation of test compound solutions: a suitable amount of test compound (please see the following table for sample weight) was weighed, and dissolved by adding a suitable amount of DMSO. The resultant mixture was mixed homogeneously, and diluted gradiently with DMSO to prepare a series of solutions of different concentrations, for later usage.
Solvent control: 0.5% DMSO.
as §4, §5
(3.3) The 96-well plate was cultured in a 37° C., 5% CO2 incubator for 96 h.
(1) 80 μL medium was removed from each well in the 96-well plate, and the plate was placed at room temperature for 30 min.
(2) 60 μL CellTiter-Glo® reagent was added to each test well in the 96-well plate.
(3) The 96-well plate was shaken for 2 min in dark to mix the mixture homogeneously in a microplate shaker, so as to lyse the cells.
(4) The 96-well plate was incubated in dark at room temperature for 10 min, to keep the light signal value stable.
(5) The results were read by Microplate Reader in luminescence mode.
IC50 calculation: cell inhibition rate (%)=(ODmaximal value−ODcompound)/(ODmaximal value−ODblank value)×100, wherein Graph prisim software is used in curve fitting to get IC50 value.
ODmaximal value: cell control with the addition of solvent and no compound, ODblank value: medium blank control.

Karpas-299 = test: In vitro cell activity, Karpas-299, MTS detection; type: cell-based; conditions: Homo sapiens, read-out: cell-inhibiting activity IC50, Karpas-299
Protocol: as §1, §2, §3, §4, §5, §6, §7, §8, §9, §10, §11, §12

ALK kinase [1] = target: T1, ALK kinase (Homo sapiens, UniProt Q9UM73); test: In vitro ALK kinase-inhibiting activity (SA-XL665/tyrosine kinase antibody, 665 nm/615 nm read); type: biochemical; conditions: Experimental Example 1; 25° C., 30 min enzymatic reaction; read-out: ALK enzyme-inhibiting activity IC50
Protocol: Preparation of ALK Kinase Buffer:
(§13) The resultant mixture was mixed homogeneously, for later usage.
as §13
Preparation of a stock solution of compound at a concentration of 1 mM: a suitable amount of compound (please see the following table for sample weight) was weighed, and dissolved by adding a suitable amount of DMSO. The resultant mixture was mixed homogeneously, for later usage.
Each of the 1 mM stock solutions was diluted with DMSO to a 200 μM solution, which was used as initial solution. Each of said initial solutions was 3-fold diluted with DMSO to prepare a series of solutions of different concentrations, and then the solution of each concentration was diluted with the ALK kinase buffer by 80 folds to prepare a 2.5×test compound solution.
Preparation of Other Reagents:
5×ALK kinase solution, 5×substrate solution, and 5×ATP solution, were prepared by using the ALK kinase buffer, for later usage.
1) 4 μL 2.5× test compound solution and 2 μL 5×ALK kinase solution were added to the corresponding wells in a 384-well plate, respectively, and incubated at 25° C. for 10 min.
2) To the corresponding wells, 2 μL 5× substrate solution and 2 μL 5×ATP solution were further added to start the enzymatic reaction, and incubation was performed at 25° C. for 30 min.
Detection buffer was used to prepare SA-XL665 at a desired concentration, which was then mixed homogeneously with the same volume of tyrosine kinase antibody. To the corresponding wells, 10 μL said antibody solution was added, and the reaction was stopped. Incubation was performed at 25° C. for 1 h.
IC50: Inhibition rate (%)=(maximal value-sample value)/(maximal value-minimal value)×100, wherein Graph prism software was used in curve fitting to get IC50 value.
Maximal value: positive control without addition of compound; minimal value: negative control without addition of enzyme.

Pharmacokinetics in rat = type: in vivo; conditions: plasma, iv 2 mg/kg, po 5 mg/kg
Protocol: Experimental Example 6 Assay on Pharmacokinetics of the Compounds Provided in Examples of the Invention in Rat
Test compounds: Compound 4, lab-made, the chemical name and preparation method of which can be found in the preparation example.
Internal standard: Alectinib, lab-made (prepared by reference to the method in Patent CN102459172A).
0.1% Tween 80+2% HPC: HPC (hydroxypropyl cellulose) (20 g) was weighed, and was added slowly to purified water (1000 mL) under stirring; Tween 80 (1 mL) was then added, and the resultant mixture was stirred until a clear solution was obtained, i.e. a blank solvent of 0.1% Tween 80+2% HPC.
A suitable amount of test compound (please see the following table for sample weight) was weighed, and said prepared solvent was added. The resultant mixture was placed in a tissue grinder, and was dispersed homogeneously at a rotation speed of 1000 r/min to get a solution for intragastric administration. […]
Protein precipitation method: to 30 μL plasma, 200 μL internal standard (acetonitrile solution containing 50 ng/mL Alectinib) was added; the resultant mixture was vortexed at 1000 r/min for 10 min, and then centrifuged at 4000 r/min for 20 min; to 100 μL supernatant, 100 μL water was added; the resultant mixture was mixed homogeneously under vortexing and analyzed by LC-MS/MS.

ALK kinase [2] = target: T1, ALK kinase; test: In vitro ALK kinase inhibitory activity by Caliper Mobility Shift assay; type: biochemical; conditions: Experimental Example 2, 28° C., 1 h, read-out: ALK enzyme-inhibiting activity IC50
Description: Experimental method: Measurement of ALK kinase inhibitory activity by Caliper Mobility Shift assay.
1. Preparation of 1-Fold Kinase Buffer
2. Preparation of Stop Solution
3. Preparation of 5-Fold Test Compound Solutions:
Preparation of a DMSO stock solution of test compound: a suitable amount of compound (please see the following table for sample weight) was weighed, and dissolved by adding a suitable amount of DMSO. The resultant mixture was mixed homogeneously, for later usage.
Said DMSO stock solution of test compound was diluted with DMSO to a solution at a concentration of 50 μM, which was used as initial solution. Said initial solution was subjected to 4-fold gradient dilution with DMSO, and the solution at each concentration was 10-fold diluted with 1-fold kinase buffer to prepare a 5-fold test compound solution.
4. Preparation of Other Reagents:
2.5×ALK kinase solution and 2.5× polypeptide solution were prepared by using the 1-fold kinase buffer, for later usage.
1) 5 μL 5-fold test compound solution and 10 μL 2.5-fold kinase solution were added to the corresponding wells in a 384-well plate, and incubated at room temperature for 10 min.
The enzymatic reaction was started, and the incubation was performed at 28° C. for 1 h.
To the corresponding wells, 25 μL stop solution was added to stop the reaction. Data was read by Caliper device, and the inhibition rate was calculated by the data,
Inhibition rate (%)=(maximal value-sample value)/(maximal value-minimal value)×100, wherein XLFIT software was used in curve fitting to get IC50 value.
Maximal value: positive control without addition of test compound; minimal value: negative control without addition of enzyme.

T1 sequence (Q9UM73 19-1620): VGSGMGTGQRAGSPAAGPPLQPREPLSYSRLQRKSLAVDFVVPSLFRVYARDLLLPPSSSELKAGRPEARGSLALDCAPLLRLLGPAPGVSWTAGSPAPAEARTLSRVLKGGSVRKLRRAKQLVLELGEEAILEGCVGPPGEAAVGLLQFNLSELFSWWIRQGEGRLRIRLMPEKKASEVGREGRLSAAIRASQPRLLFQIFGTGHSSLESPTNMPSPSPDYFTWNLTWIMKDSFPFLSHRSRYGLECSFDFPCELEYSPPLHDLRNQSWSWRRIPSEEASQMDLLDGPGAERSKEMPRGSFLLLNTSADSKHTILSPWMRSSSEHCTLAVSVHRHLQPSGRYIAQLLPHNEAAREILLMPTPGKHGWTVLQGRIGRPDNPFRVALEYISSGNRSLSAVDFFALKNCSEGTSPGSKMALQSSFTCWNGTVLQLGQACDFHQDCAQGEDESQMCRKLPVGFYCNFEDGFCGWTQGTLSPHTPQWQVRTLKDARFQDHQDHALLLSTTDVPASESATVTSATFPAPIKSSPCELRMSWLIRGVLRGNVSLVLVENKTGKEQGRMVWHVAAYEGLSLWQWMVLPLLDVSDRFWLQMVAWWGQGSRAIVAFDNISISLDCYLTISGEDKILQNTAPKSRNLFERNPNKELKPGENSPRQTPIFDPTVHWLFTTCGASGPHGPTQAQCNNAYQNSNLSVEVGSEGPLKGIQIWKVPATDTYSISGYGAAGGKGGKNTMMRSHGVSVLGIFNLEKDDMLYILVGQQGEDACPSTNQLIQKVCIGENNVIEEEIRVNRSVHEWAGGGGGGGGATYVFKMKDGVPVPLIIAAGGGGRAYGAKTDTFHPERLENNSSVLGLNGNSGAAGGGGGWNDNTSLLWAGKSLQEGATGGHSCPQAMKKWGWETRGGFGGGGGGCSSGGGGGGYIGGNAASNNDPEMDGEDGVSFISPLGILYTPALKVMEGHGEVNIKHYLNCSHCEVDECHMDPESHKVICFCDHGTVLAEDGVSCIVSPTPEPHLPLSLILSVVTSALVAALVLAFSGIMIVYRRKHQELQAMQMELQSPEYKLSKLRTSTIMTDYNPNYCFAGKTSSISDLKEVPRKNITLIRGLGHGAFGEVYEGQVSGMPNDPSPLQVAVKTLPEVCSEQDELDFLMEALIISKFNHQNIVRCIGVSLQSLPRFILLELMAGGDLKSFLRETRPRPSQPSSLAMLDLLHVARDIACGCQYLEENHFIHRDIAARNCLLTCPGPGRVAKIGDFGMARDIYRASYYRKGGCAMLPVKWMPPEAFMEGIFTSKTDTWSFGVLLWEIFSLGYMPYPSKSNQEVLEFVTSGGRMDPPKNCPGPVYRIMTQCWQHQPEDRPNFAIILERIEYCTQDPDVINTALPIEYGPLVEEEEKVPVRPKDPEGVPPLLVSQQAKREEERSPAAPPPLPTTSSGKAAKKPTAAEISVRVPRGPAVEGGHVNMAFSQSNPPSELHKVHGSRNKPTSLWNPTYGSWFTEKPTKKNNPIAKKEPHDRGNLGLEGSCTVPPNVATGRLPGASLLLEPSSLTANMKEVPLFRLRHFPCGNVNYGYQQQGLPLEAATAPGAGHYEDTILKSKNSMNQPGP

| Structure (SMILES) | IC50 (ALK kinase [1]) | IC50 (NCI-H3122; NCI-H3122, 72 h, MTS) | IC50 (NCI-H2228; NCI-H2228, 96 h, CTG) | IC50 (Karpas-299; KARPAS-299, 72 h, MTS) | bioavailability (Pharmacokinetics in rat) | IC50 (ALK kinase [2]) | IC50 (NCI-H3122; NCI-H3122, 72 h) | IC50 (NCI-H2228; NCI-H2228, 96 h) | IC50 (Karpas-299; KARPAS-299, 72 h) |
| --- | --- | --- | --- | --- | --- | --- | --- | --- | --- |
| Cc1cc(Nc2ncc(Cl)c(Nc3ccccc3S(=O)(=O)C(C)C)n2)c(OC(C)C)cc1C1CCNCC1 [Ceritinib, reference compound] | – | – | – | – | – | – | 138 nM | 48.1 nM | 30 nM |
| Cc1cc(Nc2ncc(Cl)c(Nc3ccccc3S(=O)(=O)N(C)C)n2)c2c(c1C1CCNCC1)OCCO2 [Compound 3, 2-((5-chloro-2-((7-methyl-8-(piperidin-4-yl)-2,3-dihydrobenzo[b][1,4]dioxin-5-yl)amino)pyrimidin-4-yl)amino)-N,N-dimethylbenzenesulfonamide] | 0.6 nM | 43.2 nM | 1.72 nM | 0.164 nM | – | – | – | – | – |
| Cc1cc(Nc2ncc(Cl)c(Nc3ccccc3S(=O)(=O)C(C)C)n2)c2c(c1C1=CCNCC1)CCCO2 [Compound 8, 5-chloro-N^4-(2-(isopropylsulfonyl)phenyl)-N^2-(6-methyl-5-(1,2,3,6-tetrahydropyridine-4-yl)chroman-8-yl)pyrimidine-2,4-diamine] | – | 16.1 nM | – | 5.18 nM | – | 0.54 nM | – | – | – |

More lines, main results first:

| IC50 (ALK kinase [1]) | IC50 (NCI-H3122; NCI-H3122, 72 h, MTS) | IC50 (NCI-H2228; NCI-H2228, 96 h, CTG) | IC50 (Karpas-299; KARPAS-299, 72 h, MTS) | bioavailability (Pharmacokinetics in rat) | IC50 (ALK kinase [2]) | Structure (SMILES) | IC50 (NCI-H3122; NCI-H3122, 72 h) | IC50 (NCI-H2228; NCI-H2228, 96 h) | IC50 (Karpas-299; KARPAS-299, 72 h) |
| --- | --- | --- | --- | --- | --- | --- | --- | --- | --- |
| 0.2 nM | 10.9 nM | 3.21 nM | 0.7 nM | – | – | Cc1cc(Nc2ncc(Cl)c(Nc3ccccc3S(=O)(=O)C(C)C)n2)c2c(c1C1CCNCC1)OCO2 [Compound 1, 5-chloro-N^4-(2-(isopropylsulfonyl)phenyl)-N^2-(6-methyl-7-(piperidin-4-yl)benzo[d][1,3]dioxol-4-yl)pyrimidine-2,4-diamine] | – | – | – |
| 1.7 nM | 4.18 nM | 5.47 nM | 7.66 nM | – | – | Cc1cc(Nc2ncc(Cl)c(Nc3ccccc3S(=O)(=O)N(C)C)n2)c2c(c1C1CCNCC1)OCO2 [Compound 2, 2-((5-chloro-2-((6-methyl-7-(piperidin-4-yl)benzol[d][1,3]dioxol-4-yl)amino)pyrimidin-4-yl)amino)-N,N-dimethylbenzenesulfonamide] | – | – | – |
| 0.9 nM | 130 nM | 15.1 nM | 0.71 nM | 30 to 50% | – | Cc1cc(Nc2ncc(Cl)c(Nc3ccccc3S(=O)(=O)C(C)C)n2)c2c(c1C1CCNCC1)OCCO2 [Compound 4, 5-chloro-N^4-(2-(isopropylsulfonyl)phenyl)-N^2-(7-methyl-8-(piperidin-4-yl)-2,3-dihydrobenzo[b][1,4]dioxin-5-yl)pyrimidine-2,4-diamine] | – | – | – |
| – | 25.1 nM | 7.41 nM | 5.36 nM | – | 0.36 nM | Cc1cc(Nc2ncc(Cl)c(Nc3ccccc3S(=O)(=O)C(C)C)n2)c2c(c1C1CCNC1)OCCO2 (stereo not drawn) [Compound 5, 5-chloro-N^4-(2-(isopropylsulfonyl)phenyl)-N^2-(7-methyl-8-(pyrrolidin-3-yl)-2,3-dihydrobenzo[b][1,4]dioxin-5-yl)pyrimidine-2,4-diamine] | – | – | – |
| – | 61.7 nM | – | 9.92 nM | – | 0.45 nM | Cc1cc(Nc2ncc(Cl)c(Nc3ccccc3S(=O)(=O)C(C)C)n2)c2c(c1C1CNC1)OCCO2 [Compound 6, N^2-(8-(azetidin-3-yl)-7-methyl-2,3-dihydrobenzo[b][1,4]dioxin-5-yl)-5-chloro-N^4-(2-(isopropylsulfonyl)phenyl)pyrimidine-2,4-diamine] | – | – | – |
